Our source for the melting point and IC50 values is patent US20100130482A1, “DIA[…] DERIVATIVES AS NICOTINIC ACETYLCHOLINE RECEPTOR LIGANDS” (priority 2004, published 2010).

Each structure is given as a SMILES string. pIC50: −log10 of the molar value. Where a name gives a salt, the structure may show the parent alone.

In data set [1] the target is T1, α7-subtype of nicotinic receptors (Rattus norvegicus, UniProt Q05941).
T1 construct: Cerebral cortices from male Wistar rats (150-250 g) are homogenised; from tissue; host or cells: rat cerebral cortex membrane homogenate
The data set is described as follows: In vitro inhibition of 3H-α-bungarotoxine binding in rat brain. The settings on record: rat cerebral cortex homogenate; 3H-α-bungarotoxine 2 nM; 2 hours at 37° C.

T1 sequence (Q05941 23-502): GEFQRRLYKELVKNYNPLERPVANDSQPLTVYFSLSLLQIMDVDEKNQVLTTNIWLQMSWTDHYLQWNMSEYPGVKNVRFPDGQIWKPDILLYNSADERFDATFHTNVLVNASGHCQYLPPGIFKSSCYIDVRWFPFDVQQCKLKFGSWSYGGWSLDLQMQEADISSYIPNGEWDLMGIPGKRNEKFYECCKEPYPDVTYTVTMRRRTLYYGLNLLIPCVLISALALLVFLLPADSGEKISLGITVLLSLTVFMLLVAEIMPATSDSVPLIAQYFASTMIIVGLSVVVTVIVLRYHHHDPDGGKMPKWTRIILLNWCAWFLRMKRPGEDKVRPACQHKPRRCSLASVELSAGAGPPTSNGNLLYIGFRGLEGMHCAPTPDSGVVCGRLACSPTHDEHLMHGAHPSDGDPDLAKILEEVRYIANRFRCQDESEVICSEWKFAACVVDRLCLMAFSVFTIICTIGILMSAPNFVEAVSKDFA

A word on the melting point: it is the temperature, or range, at which the solid turns liquid. Take `Nc1ccc(C(=O)Nc2ccc(-c3ccc(C(=O)N4CCN5CCC4CC5)o3)cc2)cc1`: the melting point came out at 151 °C.

Consider `O=C(Nc1ccc(-c2ccc(C(=O)N3CCN4CCC3CC4)o2)cc1)Nc1cccc(F)c1`, for which the melting point turned out to be 230 °C.

Molecule `O=C(c1ccc(-c2ccc(NC(=S)Nc3ccccc3)cc2)o1)N1CCN2CCC1CC2` came in with a melting point of 171.4 to 174.7 °C.

As to `O=C(c1ccc(-c2ccc(-n3cccc3)cc2)o1)N1CCN2CCC1CC2` (as salt: fumaric acid salt), the melting point turned out to be 222 °C.

Take `O=C(Nc1ccc(-c2ccc(C(=O)N3CCN4CCC3CC4)o2)cc1)Nc1ccccc1C(F)(F)F`: the melting point is 253 °C (dec.).

Take `CC(=O)Nc1ccccc1NC(=O)Nc1ccc(-c2ccc(C(=O)N3CCN4CCC3CC4)o2)cc1` (as salt: fumaric acid salt) [Compound B2, 1-{4-[5-(1,4-Diaza-bicyclo[3.2.2]nonane-4-carbonyl)-furan-2-yl]-phenyl}-3-(2-acetylaminophenyl)-urea]: the melting point was 159 to 169 °C.

Turning to `O=C(c1ccc(-c2ccc(Nc3ncccc3[N+](=O)[O-])cc2)o1)N1CCN2CCC1CC2` (as salt: fumaric acid salt), the melting point turned out to be 223 °C.

`O=C(Nc1ccc(-c2ccc(C(=O)N3CCN4CCC3CC4)o2)cc1)Nc1ccccc1[N+](=O)[O-]` (as salt: fumaric acid salt): the melting point is 198 to 202 °C.

The pIC50 is −log10 of the IC50, conventionally taken in molar units. A low value points to a large IC50. In data set [1], `CCNC(=O)Nc1ccc(-c2ccc(C(=O)N3CCN4CCC3CC4)o2)cc1` [Compound C3, 1-{4-[5-(1,4-Diaza-bicyclo[3.2.2]nonane-4-carbonyl)-furan-2-yl]-phenyl}-3-ethyl-urea] gave a pIC50 of 9.25.

Regarding `Nc1ccccc1NC(=O)Nc1ccc(-c2ccc(C(=O)N3CCN4CCC3CC4)o2)cc1` [Compound A1, 1-{4-[5-(1,4-Diaza-bicyclo[3.2.2]nonane-4-carbonyl)-furan-2-yl]-phenyl}-3-(2-aminophenyl)-urea], the melting point was determined as 174 °C. In data set [1], this molecule showed a pIC50 of 8.92.

On to `O=C(Nc1ccc(-c2ccc(C(=O)N3CCN4CCC3CC4)o2)cc1)c1ccncc1` (as salt: fumaric acid salt), for which the melting point fell in the range of 250 to 253.5 °C.

`CCNC(=O)Nc1cccc(-c2ccc(C(=O)N3CCN4CCC3CC4)o2)c1` (as salt: fumaric acid salt) displayed a melting point of 158 to 161 °C.

Take `O=C(Nc1ccc(-c2ccc(C(=O)N3CCN4CCC3CC4)o2)cc1)Nc1cccc(C(F)(F)F)c1`: the melting point came to 171 °C.

Turning to `O=C(Nc1ccc(-c2ccc(C(=O)N3CCN4CCC3CC4)o2)cc1)c1ccccc1`, the melting point came to 254 °C.

`O=C(Nc1ccc(-c2ccc(C(=O)N3CCN4CCC3CC4)o2)cc1)c1cccc([N+](=O)[O-])c1` (as salt: hydrochloric acid salt) came in with a melting point greater than 300 °C.

Regarding `O=C(Nc1cccc(-c2ccc(C(=O)N3CCN4CCC3CC4)o2)c1)c1ccccc1` (as salt: fumaric acid salt), the melting point fell in the range of 201 to 204 °C.

`CCNC(=O)Nc1ccc(-c2ccc(C(=O)N3CCN4CCC3CC4)o2)cc1` (as salt: fumaric acid salt) [Compound C3, 1-{4-[5-(1,4-Diaza-bicyclo[3.2.2]nonane-4-carbonyl)-furan-2-yl]-phenyl}-3-ethyl-urea] gave a melting point of 167 to 171 °C.

For the molecule `CC(=O)Nc1ccccc1NC(=O)Nc1ccc(-c2ccc(C(=O)N3CCN4CCC3CC4)o2)cc1` [Compound B2, 1-{4-[5-(1,4-Diaza-bicyclo[3.2.2]nonane-4-carbonyl)-furan-2-yl]-phenyl}-3-(2-acetylaminophenyl)-urea], in data set [1], the pIC50 was 8.80.

`O=C(Nc1ccc(-c2ccc(C(=O)N3CCN4CCC3CC4)o2)cc1)c1ccccc1[N+](=O)[O-]` (as salt: hydrochloric acid salt): the melting point was 283 °C.

For `O=C(Nc1ccc(-c2ccc(C(=O)N3CCN4CCC3CC4)o2)cc1)Nc1ccccc1F`, the melting point is 241 °C (dec.).

`O=C(Nc1ccc(-c2ccc(C(=O)N3CCN4CCC3CC4)o2)cc1)Nc1ccccc1Cl`: the melting point was 200 to 211 °C (dec.).

The molecule `O=C(Nc1ccc(-c2ccc(C(=O)N3CCN4CCC3CC4)o2)cc1)c1ccc([N+](=O)[O-])cc1` (as salt: hydrochloric acid salt) displayed a melting point of 195 to 210 °C.

The molecule `CCNC(=O)Nc1ccccc1NC(=O)Nc1ccc(-c2ccc(C(=O)N3CCN4CCC3CC4)o2)cc1` (as salt: fumaric acid salt) came in with a melting point of 162.5 to 165.5 °C.

`Nc1cccc(C(=O)Nc2ccc(-c3ccc(C(=O)N4CCN5CCC4CC5)o3)cc2)c1` registered a melting point of 249 to 252 °C.
